Results: ChEMBL document CHEMBL1687830, “Evaluation of ceftazidime and NXL104 in two murine models of infection due to KPC-producing Klebsiella pneumoniae” (2011)
Values after ≈ are worked out from the molar mass of the structure shown.

Legend:
Assay type in all cases: functional
Klebsiella pneumoniae [1] = test: Antimicrobial activity against carbapenemases KPC-producing Klebsiella pneumoniae VA-406 infected in sc dosed CD-1 mouse septicemia infection model at 8:1 compound to NXL104 beta-lactamase inhibitor ratio by acute lethal septicemia analysis; details: VA-406, sc
Klebsiella pneumoniae [2] = test: (§1) Antimicrobial activity against carbapenemases KPC-producing Klebsiella pneumoniae VA-361 infected in CD-1 mouse thigh infection model assessed as change in log10 CFU reduction per thigh treated 1.5 hr post infection at >=32:8 mg/kg, sc compound to NXL104 beta-lactamase inhibitor ratio after 24 hrs by acute lethal septicemia analysis (reference value: 8.93 log10CFU/thigh)
Klebsiella pneumoniae [3] = test: as §1, with “>=128:32” for “>=32:8”
Klebsiella pneumoniae [4] = test: Antimicrobial activity against Klebsiella pneumoniae ATCC 13883 infected in sc dosed CD-1 mouse septicemia infection model at 8:1 compound to NXL104 beta-lactamase inhibitor ratio by acute lethal septicemia analysis; details: ATCC 13883, sc
Klebsiella pneumoniae [5] = test: Antimicrobial activity against carbapenemases KPC-producing Klebsiella pneumoniae VA-361 infected in sc dosed CD-1 mouse in presence of 4 ug/ml cavulanate beta-lactamase inhibitor
Klebsiella pneumoniae [6] = test: as §1, with “VA-406” for “VA-361”, “8.67” for “8.93”
Klebsiella pneumoniae [7] = test: Antimicrobial activity against carbapenemases KPC-producing Klebsiella pneumoniae VA-361 infected in sc dosed CD-1 mouse in presence of 4 ug/ml Tazobactam beta-lactamase inhibitor
Klebsiella pneumoniae [8] = test: as §1, with “VA-406” for “VA-361”, “>=512:128” for “>=32:8”, “8.67” for “8.93”
Klebsiella pneumoniae [9] = test: Antimicrobial activity against carbapenemases KPC-producing Klebsiella pneumoniae VA-406 infected in sc dosed CD-1 mouse in presence of 1 ug/ml NXL104 beta-lactamase inhibitor
Klebsiella pneumoniae [10] = test: Antimicrobial activity against carbapenemases KPC-producing Klebsiella pneumoniae VA-406 infected in sc dosed CD-1 mouse in presence of 4 ug/ml NXL104 beta-lactamase inhibitor
Klebsiella pneumoniae [11] = test: Antimicrobial activity against carbapenemases KPC-producing Klebsiella pneumoniae VA-361 infected in sc dosed CD-1 mouse septicemia infection model at 2:1 compound to NXL104 beta-lactamase inhibitor ratio by acute lethal septicemia analysis; details: VA-361, sc
Klebsiella pneumoniae [12] = test: Antimicrobial activity against carbapenemases KPC-producing Klebsiella pneumoniae VA-361 infected in sc dosed CD-1 mouse
Klebsiella pneumoniae [13] = test: Antimicrobial activity against carbapenemases KPC-producing Klebsiella pneumoniae VA-361 infected in sc dosed CD-1 mouse septicemia infection model by acute lethal septicemia analysis; details: VA-361, sc
Klebsiella pneumoniae [14] = test: Antimicrobial activity against carbapenemases KPC-producing Klebsiella pneumoniae VA-361 infected in sc dosed CD-1 mouse septicemia infection model at 16:1 compound to NXL104 beta-lactamase inhibitor ratio by acute lethal septicemia analysis; details: VA-361, sc
Klebsiella pneumoniae [15] = test: Antimicrobial activity against carbapenemases KPC-producing Klebsiella pneumoniae VA-361 infected in sc dosed CD-1 mouse in presence of 1 ug/ml NXL104 beta-lactamase inhibitor
Klebsiella pneumoniae [16] = test: Antimicrobial activity against carbapenemases KPC-producing Klebsiella pneumoniae VA-406 infected in sc dosed CD-1 mouse septicemia infection model at 16:1 compound to NXL104 beta-lactamase inhibitor ratio by acute lethal septicemia analysis; details: VA-406, sc
Klebsiella pneumoniae [17] = test: as §1, with “VA-406” for “VA-361”, “>=1024:256” for “>=32:8”, “8.67” for “8.93”
Klebsiella pneumoniae [18] = test: Antimicrobial activity against carbapenemases KPC-producing Klebsiella pneumoniae VA-361 infected in sc dosed CD-1 mouse in presence of 4 ug/ml NXL104 beta-lactamase inhibitor
Klebsiella pneumoniae [19] = test: as §1, with “>=64:16” for “>=32:8”
Klebsiella pneumoniae [20] = test: Antimicrobial activity against carbapenemases KPC-producing Klebsiella pneumoniae VA-406 infected in sc dosed CD-1 mouse septicemia infection model at 2:1 compound to NXL104 beta-lactamase inhibitor ratio by acute lethal septicemia analysis; details: VA-406, sc
Klebsiella pneumoniae [21] = test: as §1, with “>=512:128” for “>=32:8”
Klebsiella pneumoniae [22] = test: Antimicrobial activity against carbapenemases KPC-producing Klebsiella pneumoniae VA-406 infected in sc dosed CD-1 mouse
Klebsiella pneumoniae [23] = test: Antimicrobial activity against carbapenemases KPC-producing Klebsiella pneumoniae VA-361 infected in sc dosed CD-1 mouse septicemia infection model at 8:1 compound to NXL104 beta-lactamase inhibitor ratio by acute lethal septicemia analysis; details: VA-361, sc
Klebsiella pneumoniae [24] = test: Antimicrobial activity against carbapenemases KPC-producing Klebsiella pneumoniae VA-406 infected in sc dosed CD-1 mouse septicemia infection model at 4:1 compound to NXL104 beta-lactamase inhibitor ratio by acute lethal septicemia analysis; details: VA-406, sc
Klebsiella pneumoniae [25] = test: Antimicrobial activity against carbapenemases KPC-producing Klebsiella pneumoniae VA-406 infected in sc dosed CD-1 mouse in presence of 2 ug/ml NXL104 beta-lactamase inhibitor
Klebsiella pneumoniae [26] = test: Antimicrobial activity against carbapenemases KPC-producing Klebsiella pneumoniae VA-406 infected in sc dosed CD-1 mouse in presence of 4 ug/ml cavulanate beta-lactamase inhibitor
Klebsiella pneumoniae [27] = test: as §1, with “VA-406” for “VA-361”, “>=16:4” for “>=32:8”, “8.67” for “8.93”
Klebsiella pneumoniae [28] = test: as §1, with “VA-406” for “VA-361”, “>=128:32” for “>=32:8”, “8.67” for “8.93”
Klebsiella pneumoniae [29] = test: Antimicrobial activity against carbapenemases KPC-producing Klebsiella pneumoniae VA-361 infected in sc dosed CD-1 mouse septicemia infection model at 4:1 compound to NXL104 beta-lactamase inhibitor ratio by acute lethal septicemia analysis; details: VA-361, sc
Klebsiella pneumoniae [30] = test: Antimicrobial activity against carbapenemases KPC-producing Klebsiella pneumoniae VA-406 infected in sc dosed CD-1 mouse in presence of 4 ug/ml Tazobactam beta-lactamase inhibitor
Klebsiella pneumoniae [31] = test: Antimicrobial activity against carbapenemases KPC-producing Klebsiella pneumoniae VA-361 infected in sc dosed CD-1 mouse in presence of 2 ug/ml NXL104 beta-lactamase inhibitor
Klebsiella pneumoniae [32] = test: Antimicrobial activity against Klebsiella pneumoniae ATCC 13883 infected in sc dosed CD-1 mouse septicemia infection model by acute lethal septicemia analysis; details: ATCC 13883, sc
Klebsiella pneumoniae [33] = test: as §1, with “VA-406” for “VA-361”, “>=64:16” for “>=32:8”, “analysis” for “analysis (reference value: 8.93 log10CFU/thigh)”
Klebsiella pneumoniae [34] = test: as §1, with “VA-406” for “VA-361”, “>=256:64” for “>=32:8”, “8.67” for “8.93”
Klebsiella pneumoniae [35] = test: as §1, with “>=256:64” for “>=32:8”
Klebsiella pneumoniae [36] = test: Antimicrobial activity against Klebsiella pneumoniae ATCC 13883 infected in sc dosed CD-1 mouse septicemia infection model at 4:1 compound to NXL104 beta-lactamase inhibitor ratio by acute lethal septicemia analysis; details: ATCC 13883, sc
Klebsiella pneumoniae [37] = test: Antimicrobial activity against Klebsiella pneumoniae ATCC 13883 infected in sc dosed CD-1 mouse septicemia infection model at 2:1 compound to NXL104 beta-lactamase inhibitor ratio by acute lethal septicemia analysis; details: ATCC 13883, sc
Klebsiella pneumoniae [38] = test: Antimicrobial activity against carbapenemases KPC-producing Klebsiella pneumoniae VA-406 infected in sc dosed CD-1 mouse septicemia infection model by acute lethal septicemia analysis; details: VA-406, sc

CC(C)(O/N=C(\C(=O)N[C@@H]1C(=O)N2C(C(=O)[O-])=C(C[n+]3ccccc3)CS[C@H]12)c1csc(N)n1)C(=O)O [CEFTAZIDIME]
ED50 (Klebsiella pneumoniae [1]): 7.2 mg/kg
log10cfu (Klebsiella pneumoniae [2]): 2.32
log10cfu (Klebsiella pneumoniae [3]): 1.88
ED50 (Klebsiella pneumoniae [4]): 0.62 mg/kg
MIC (Klebsiella pneumoniae [5]): 128 µg/mL
log10cfu (Klebsiella pneumoniae [6]): 2.33
MIC (Klebsiella pneumoniae [7]): 128 µg/mL
log10cfu (Klebsiella pneumoniae [8]): -1.03
MIC (Klebsiella pneumoniae [9]): 8 µg/mL
MIC (Klebsiella pneumoniae [10]): ≤ 0.06 µg/mL
ED50 (Klebsiella pneumoniae [11]): 8.1 mg/kg
MIC (Klebsiella pneumoniae [12]): 256 µg/mL (≈ 468 µM)
ED50 (Klebsiella pneumoniae [13]): 1580 mg/kg
ED50 (Klebsiella pneumoniae [14]): 29.5 mg/kg
MIC (Klebsiella pneumoniae [15]): 8 µg/mL
ED50 (Klebsiella pneumoniae [16]): 12.1 mg/kg
log10cfu (Klebsiella pneumoniae [17]): -1.59
MIC (Klebsiella pneumoniae [18]): 0.25 µg/mL
log10cfu (Klebsiella pneumoniae [19]): 2.19
ED50 (Klebsiella pneumoniae [20]): 3.5 mg/kg
log10cfu (Klebsiella pneumoniae [21]): -1.47
MIC (Klebsiella pneumoniae [22]): ≥ 512 µg/mL
ED50 (Klebsiella pneumoniae [23]): 16.9 mg/kg
ED50 (Klebsiella pneumoniae [24]): 3.8 mg/kg
MIC (Klebsiella pneumoniae [25]): 2 µg/mL
MIC (Klebsiella pneumoniae [26]): 256 µg/mL
log10cfu (Klebsiella pneumoniae [27]): 2.69
log10cfu (Klebsiella pneumoniae [28]): -0.46
ED50 (Klebsiella pneumoniae [29]): 15.1 mg/kg
MIC (Klebsiella pneumoniae [30]): 256 µg/mL
MIC (Klebsiella pneumoniae [31]): 4 µg/mL
ED50 (Klebsiella pneumoniae [32]): 1.9 mg/kg
log10cfu (Klebsiella pneumoniae [33]): 2.06
log10cfu (Klebsiella pneumoniae [34]): -1.02
log10cfu (Klebsiella pneumoniae [35]): -0.85
ED50 (Klebsiella pneumoniae [36]): 1.1 mg/kg
ED50 (Klebsiella pneumoniae [37]): 1 mg/kg
ED50 (Klebsiella pneumoniae [38]): 709 mg/kg

CO/N=C(\C(=O)N[C@@H]1C(=O)N2C(C(=O)[O-])=C(C[N+]3(C)CCCC3)CS[C@H]12)c1csc(N)n1 [CEFEPIME]
MIC (Klebsiella pneumoniae [5]): 8 µg/mL
MIC (Klebsiella pneumoniae [9]): 0.5 µg/mL
MIC (Klebsiella pneumoniae [10]): 0.125 µg/mL
MIC (Klebsiella pneumoniae [12]): 32 µg/mL (≈ 66.6 µM)
MIC (Klebsiella pneumoniae [15]): 0.5 µg/mL
MIC (Klebsiella pneumoniae [18]): ≤ 0.06 µg/mL
MIC (Klebsiella pneumoniae [22]): 256 µg/mL (≈ 533 µM)
MIC (Klebsiella pneumoniae [25]): 0.5 µg/mL
MIC (Klebsiella pneumoniae [26]): 128 µg/mL
MIC (Klebsiella pneumoniae [30]): 128 µg/mL
MIC (Klebsiella pneumoniae [31]): 0.25 µg/mL

C[C@@H](O)[C@H]1C(=O)N2C(C(=O)O)=C(S[C@@H]3CN[C@H](C(=O)N(C)C)C3)[C@H](C)[C@H]12 [MEROPENEM]
MIC (Klebsiella pneumoniae [5]): 2 µg/mL
MIC (Klebsiella pneumoniae [7]): 4 µg/mL
MIC (Klebsiella pneumoniae [12]): 4 µg/mL (≈ 10.4 µM)
MIC (Klebsiella pneumoniae [22]): 256 µg/mL (≈ 668 µM)
MIC (Klebsiella pneumoniae [26]): 128 µg/mL
MIC (Klebsiella pneumoniae [30]): 128 µg/mL
